# Measurements reported in patent US6369299B1 (Regents of the University of Minnesota, priority 1999, dated 2002).
# Legend:
# [1] = test system: Medicago sativa cv. Regen SY; test: atrazine tolerance: rooting and growth of sterile cuttings on sugar-free, hormone-free B5h medium; format: in vivo; settings: untransformed control (SY) plant cuttings, Magenta boxes
# Excerpt: Under these conditions plant growth depends on photosynthesis for production of energy and carbon.
# [2] = test system: quinone-binding (QB) protein; settings: altered QB protein of atrazine resistant weeds; cited from earlier work
# plants = settings: cited from earlier work
SMILES,atrazine concentration at which cuttings did not root or grow [1],reduced affinity of altered QB protein for atrazine [2],herbicidal activity (plants)
"CCNc1nc(Cl)nc(NC(C)C)n1 [atrazine, 2-chloro-4-ethylamino-6-isopropylamino-1,3,5-s-triazine]",≥ 500 nM,1000 fold,–
CCNc1nc(NC(C)C)[nH]c(=O)n1 [hydroxyatrazine],–,–,no herbicidal activity
